Measurements published in US10881110B2, “Herbicidal compositions comprising isoxazolo[5,4-b]pyridines” (BASF SE, priority 2014, dated 2021).

What was measured:
Test in all cases: greenhouse post-emergence herbicidal test
ABUTH = format: in vivo, Abutilon theophrast; parameters: key to herbicidal activity against ABUTH found: rating on a scale from 0 to 100
Method in brief: (§1)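 Greenhouse pots, loamy sand substrate (~4.6% humus, ~69.9% sand). Spray applied once plants reached 1–15 cm. Scoring 0–100, day 20.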

ALOMY = format: in vivo, Alopecurus myosuroides; parameters: key to herbicidal activity against ALOMY found: rating on a scale from 0 to 100
Method in brief: as §1

GALAP = format: in vivo, Galium aparine; parameters: key to herbicidal activity against GALAP found: rating on a scale from 0 to 100; conditions: post emergence
Method in brief: (§2)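 Herbicidal activity scored on a 0 (no damage) to 100 (plants destroyed) scale, usually 20 days after water-based spraying of 1–15 cm plants grown in loamy sand at 10-25 °C or 20-35 °C depending on species. Components were applied from 10% emulsion concentrates; Colby's E=X+Y−(X·Y/100) gives the additive expectation.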

GERDI = format: in vivo, Geranium dissectum; parameters: key to herbicidal activity against GERDI found: rating on a scale from 0 to 100; conditions: post emergence
Method in brief: as §1

IPOHE = format: in vivo, Ipomoea hederacea; parameters: key to herbicidal activity against IPOHE found: rating on a scale from 0 to 100; conditions: post emergence
Method in brief: as §2

MATCH = format: in vivo, Matricaria recutita; parameters: key to herbicidal activity against MATCH found: rating on a scale from 0 to 100
Method in brief: as §1

STEME = format: in vivo, Stellaria media; parameters: key: scale 0 to 100
Experimental: (§3) The culture containers used were plastic pots containing medium loamy sand with approximately 4.6% of humus and 69.9% sand as substrate. The seeds of the test plants were sown separately for each species.
(§4) For the post-emergence treatment, the test plants were grown to a plant height of from 1 to 15 cm, depending on the plant habit, and only then treated with the active compounds which had been suspended or emulsified in water. To this end, the test plants were either sown directly, and grown in the same containers, or they were first grown separately as seedlings and transplanted into the test containers a few days prior to treatment.
(§5) Depending on the species, the plants were kept at 10-25° C. and 20-35° C., respectively.
(§6) The test period extended over 1 to 3 weeks. During this time, the plants were tended and their response to the individual treatments was evaluated 20 days after treatment except mentioned otherwise.
(§7) Evaluation was carried out using a scale from 0 to 100. 100 means no emergence of the plants, or complete destruction of at least the above-ground parts, and 0 means no damage or normal course of growth.
(§8) The respective stated components A and B, and, if appropriate, C, were formulated as a 10% by weight strength emulsion concentrate and, with addition of the amount of solvent system, introduced into the spray liquor used for applying the active compound. In the examples, the solvent used was water.
(§9) In the examples below, using the method of S. R. Colby (1967) “Calculating synergistic and antagonistic responses of herbicide combinations”, Weeds 15, p. 22 ff., the value E, which is expected if the activity of the individual active compounds is only additive, was calculated. E=X+Y−(X·Y/100)

ECHCG = format: in vivo, Echinochloa crus-galli; parameters: key to herbicidal activity against ECHCG found / herbicidal activity against ECHCH found: scale 0 to 100; conditions: post emergence
Experimental: as §3, §4, §5, §6, §7, §8, §9

PAPRH = format: in vivo, Papaver rhoeas; parameters: key: rating on a scale from 0 to 100
Experimental: as §3, §4, §5, §6, §7, §8, §9

POLCO = format: in vivo, Polygonum convolvulus; parameters: key to herbicidal activity against POLCO found: rating on a scale from 0 to 100; conditions: for herbicidal activity against POLCO found: post emergence
Method in brief: as §2

ERICA = format: in vivo, Conyza canadensis; parameters: key to herbicidal activity against ERICA found: rating on a scale from 0 to 100; conditions: post emergence
Method in brief: as §1

VIOAR = format: in vivo, Viola arvensis; parameters: key to herbicidal activity against VIOAR found / herbicidal activity against VIOLA found: rating on a scale from 0 to 100
Method in brief: as §2

APESV = format: in vivo, Apera spica-venti; parameters: key to herbicidal activity against APESV found: rating on a scale from 0 to 100; conditions: for herbicidal activity against APESV found: post emergence, B.95 1 g/ha a.i.
Method in brief: as §1

KCHSC = format: in vivo, Kochia scoparia; conditions: Bassia scoparia, post-emergence, 480 h, read-out: herbicidal activity against KCHSC found
Method in brief: as §2

[1] = application rate a.i.: I.1 31.25 g/ha, B.40 (imazethapyr) 7.5 g/ha, alone or as mixture (composition 1.40)
[2] = application rate a.i.: I.1 62.5 g/ha, B.40 (imazethapyr) 7.5 g/ha, alone or as mixture (composition 1.40)
[3] = post emergence, I.1 62.5 g/ha, B.89 12.5 g/ha a.i.
[4] = I.1 62.5 g/ha, B.89 25 g/ha a.i.
[5] = I.1 15.62 g/ha, B.89 25 g/ha a.i.
[6] = I.1 62.5 g/ha, B.89 12.5 g/ha a.i.
[7] = I.1 31.25 g/ha, B.89 25 g/ha a.i.
[8] = post emergence, I.1 31.25 g/ha, B.95 1 g/ha a.i.
[9] = I.1 15.62 g/ha, B.95 1 g/ha a.i.
[10] = I.1 62.5 g/ha, B.95 2 g/ha a.i.
[11] = I.1 31.25 g/ha, B.95 1 g/ha a.i.
[12] = I.1 31.25 g/ha, B.95 2 g/ha a.i.
[13] = I.1 62.5 g/ha, B.95 1 g/ha a.i.
[14] = Matricaria chamomilla, post-emergence, 480 h, read-out: herbicidal activity against MATCH found
[15] = a.i. g/ha: I.1 62.5, B.191 225, 20 days after treatment

`C#CCOC(=O)[C@@H](C)Oc1ccc(Oc2ncc(Cl)cc2F)cc1` [B.2, clodinafop-propargyl] gave a pest or weed control at 15 g/ha (ABUTH; Abutilon theophrasti, post-emergence, 480 h, post emergence, 15 g/ha a.i., read-out: herbicidal activity against ABUTH found) of 15%, a pest or weed control at 15 g/ha (ALOMY; Alopecurus myosuroides, post-emergence, 480 h, post emergence, 15 g/ha a.i., read-out: herbicidal activity against ALOMY found) of 85% and a pest or weed control at 7.5 g/ha (GALAP; Galium aparine, post-emergence, 480 h, 7.5 g/ha a.i., read-out: herbicidal activity against GALAP found) of 0%. It also gave a pest or weed control at 7.5 g/ha (GERDI; Geranium dissectum, post-emergence, 480 h, 7.5 g/ha a.i., read-out: herbicidal activity against GERDI found) of 0%, a pest or weed control at 7.5 g/ha (IPOHE; Ipomoea hederacea, post-emergence, 480 h, 7.5 g/ha a.i., read-out: herbicidal activity against IPOHE found) of 10% and a pest or weed control at 15 g/ha (IPOHE; Ipomoea hederacea, post-emergence, 480 h, 15 g/ha a.i., read-out: herbicidal activity against IPOHE found) of 40%. The pest or weed control at 15 g/ha (MATCH; Matricaria chamomilla, post-emergence, 480 h, post emergence, 15 g/ha a.i., read-out: herbicidal activity against MATCH found) was 0% and the “herbicidal activity against STEME found” value (STEME; 7.5 g/ha a.i.) was 0.
With `CCc1cnc(C2=NC(C)(C(C)C)C(=O)N2)c(C(=O)O)c1` (centres unmarked) [B.40, imazethapyr] the “herbicidal activity against ECHCG found” value (ECHCG; [1]) was 85, the “herbicidal activity against GERDI found” value (GERDI; [1]) was 95 and the “herbicidal activity against GERDI found” value (GERDI; [2]) was 90. For the same compound, the “herbicidal activity against IPOHE found” value (IPOHE; [2]) was 80, the “herbicidal activity against PAPRH found” value (PAPRH; [2]) was 45 and the “herbicidal activity against POLCO found” value (POLCO; [1]) was 80.
`CS(=O)(=O)NC(=O)c1cc(Oc2ccc(C(F)(F)F)cc2Cl)ccc1[N+](=O)[O-]` [B.89, fomesafen] was tested, and the “herbicidal activity against ABUTH found” value (ABUTH; post emergence, I.1 31.25 g/ha, B.89 25 g/ha a.i.) was 90, the “herbicidal activity against ALOMY found” value (ALOMY; [3]) was 25 and the “herbicidal activity against ERICA found” value (ERICA; [4]) was 20. The “herbicidal activity against GERDI found” value (GERDI; [5]) was 25, the “herbicidal activity against GERDI found” value (GERDI; [6]) was 25 and the “herbicidal activity against GERDI found” value (GERDI; [4]) was 25. The “herbicidal activity against IPOHE found” value (IPOHE; [5]) was 85, the “herbicidal activity against IPOHE found” value (IPOHE; [7]) was 85 and the “herbicidal activity against IPOHE found” value (IPOHE; [6]) was 85. For the same compound, the “herbicidal activity against IPOHE found” value (IPOHE; [4]) was 85, the “herbicidal activity against POLCO found” value (POLCO; I.1 15.62 g/ha, B.89 12.5 g/ha a.i.) was 95 and the “herbicidal activity against STEME found” value (STEME; [5]) was 0. For the same compound, the “herbicidal activity against STEME found” value (STEME; I.1 31.25 g/ha, B.89 12.5 g/ha a.i.) was 0, the “herbicidal activity against STEME found” value (STEME; [7]) was 0 and the “herbicidal activity against VIOAR found” value (VIOAR; [3]) was 55.
`C#CCN1C(=O)C(F)(F)Oc2cc(F)c(-n3c(=O)n(C)c(=S)n(C)c3=O)cc21` [B.95, trifludimoxazin] was tested, and the “herbicidal activity against ALOMY found” value (ALOMY; [8]) was 25, the “herbicidal activity against ALOMY found” value (ALOMY; post emergence, I.1 62.5 g/ha, B.95 1 g/ha a.i.) was 25 and the “herbicidal activity against APESV found” value (APESV; I.1 15.62 g/ha) was 30. For the same compound, the “herbicidal activity against APESV found” value (APESV; I.1 62.5 g/ha) was 30, the “herbicidal activity against ECHCG found” value (ECHCG; [9]) was 25 and the “herbicidal activity against ECHCG found” value (ECHCG; [10]) was 45. For the same compound, the “herbicidal activity against ERICA found” value (ERICA; [9]) was 40, the “herbicidal activity against ERICA found” value (ERICA; I.1 15.62 g/ha, B.95 2 g/ha a.i.) was 45 and the “herbicidal activity against ERICA found” value (ERICA; [11]) was 40. For the same compound, the “herbicidal activity against ERICA found” value (ERICA; [12]) was 45, the “herbicidal activity against ERICA found” value (ERICA; [13]) was 40 and the “herbicidal activity against ERICA found” value (ERICA; [10]) was 45. The “herbicidal activity against GALAP found” value (GALAP; [11]) was 75, the “herbicidal activity against GALAP found” value (GALAP; [12]) was 75 and the “herbicidal activity against GALAP found” value (GALAP; [10]) was 75. The “herbicidal activity against GERDI found” value (GERDI; [13]) was 65, the “herbicidal activity against GERDI found” value (GERDI; [10]) was 65 and the “herbicidal activity against MATCH found” value (MATCH; post emergence, I.1 15.62 g/ha, B.95 1 g/ha a.i.) was 30. The “herbicidal activity against MATCH found” value (MATCH; [8]) was 30, the “herbicidal activity against MATCH found” value (MATCH; post emergence, I.1 31.25 g/ha, B.95 2 g/ha a.i.) was 65 and the “herbicidal activity against MATCH found” value (MATCH; post emergence, I.1 62.5 g/ha, B.95 2 g/ha a.i.) was 65. For the same compound, the “herbicidal activity against PAPRH found” value (PAPRH; [11]) was 35 and the “herbicidal activity against PAPRH found” value (PAPRH; [13]) was 35.
In the case of `C/C(=N\NC(=O)Nc1cc(F)cc(F)c1)c1ncccc1C(=O)O` [B.174, diflufenzopyr], the pest or weed control at 20 g/ha (ABUTH; Abutilon theophrasti, post-emergence, 480 h, read-out: herbicidal activity against ABUTH found) is reported as 85%, the pest or weed control at 20 g/ha (ALOMY; Alopecurus myosuroides, post-emergence, 480 h, read-out: herbicidal activity against ALOMY found) is reported as 0% and the pest or weed control at 20 g/ha (APESV; Apera spica-venti, post-emergence, 480 h, read-out: herbicidal activity against APESV found) is reported as 0%. The pest or weed control at 20 g/ha (KCHSC) was 65%, the pest or weed control at 20 g/ha (MATCH; [14]) was 70% and the pest or weed control at 40 g/ha (MATCH; [14]) was 70%. The pest or weed control at 20 g/ha (POLCO; Fallopia convolvulus, post-emergence, 480 h, read-out: herbicidal activity against POLCO found) was 30%, the “herbicidal activity against STEME found” value (STEME; B.174 alone 40 g/ha a.i.) was 50 and the pest or weed control at 40 g/ha (VIOAR; Viola arvensis, post-emergence, read-out: herbicidal activity against VIOAR found) was 65%.
In the case of `CCCCCCCCSC(=O)Oc1cc(Cl)nnc1-c1ccccc1` [B.191, pyridate], the “herbicidal activity against ERICA found” value (ERICA; [15]) is reported as 70%, the “herbicidal activity against GALAP found” value (GALAP; [15]) is reported as 90% and the “herbicidal activity against MATCH found” value (MATCH; post emergence, a.i. g/ha: I.1 62.5, B.191 225, 20 days after treatment) is reported as 20%. The “herbicidal activity against STEME found” value (STEME; [15]) was 0%.
